From patent US4691046A, “Butanedioic acid mono [(2-dimethylamino] ethyl ester)succinate” (Institut Organicheskoi Khimii Ordena Lenina I Ordena …, priority 1986, dated 1987)

Tests used:
Pyruvatedehydrogenase = test: Activity of pyruvatedehydrogenase in myocardium upon low-temperature treatment; format: in vivo, mice; details: 2.5 hours at -14° C.; 80 mg/kg (invention) or 64 mg/kg (ester); control 56.6 ± 1.1
Protocol: (§2) The preparations were administered one hour before the standard low-temperature treatment (-14° C.) in doses of 80 mg/kg of the compound according to the present invention and 64 mg/kg of the prior art compound-butanedioic acid mono[(2-dimethylamino)-ethyl ester].

[1] = Stresso-protective activity, motion stress in slowly rotating drum for 48 hours; format: in vivo, rats; details: 48 h motion stress
Protocol: In evaluation of the stresso-protective activity of the compound according to the present invention as a model use was made of a procedure of depriving rats of sleep, meals and water in a slowly rotating drum (at the speed of 0.2 km/h).
The experiments were carried out on 42 nondescript male rats. In parallel experiments the antistress activity of butanedioic acid mono[(2-dimethylamino)ethyl ester] was studied; as the reference prepartion use was made of the prior art tranquilizer--diazepam which was used in the experiments for this very indication.
4 groups of animals were tested in parallel. Groups I and II were placed for 48 hours into a slowly rotating drum, groups III and IV were under normal conditions and were deprived only of meals and water. The compound according to the present invention and butanedioic acid mono[(2-dimethylamino)ethyl ester] were administered intraperitoneally in the dose of 10 mg/kg four times (2 times a day) in the volume of 2.5 ml/kg under the conditions of motion stress (Group I of the animals) and under normal conditions (Group III of animals). The control animals--Group II (active control) and Group IV (passive control) were given a physiological solution. The efficiency of the compound according to the present invention, of butanedioic acid mono[(2-dimethylamino)ethyl ester] and of diazepam was estimated on the basis of a set of characteristics showing the functional activity of the central nervous system, physical fitness and development of basic symptoms of the stress-syndrome.
The residence of control rats in a slowly-rotating drum over 48 hours results in a noticeable deterioration of all the studied characteristics, especially those of higher nervous activity (learning) and development of stress-syndrome. The state of control animals was characterized by lowering of the overall behavioural activity as determined by the "open-field" test (37±15%) with reference to the passive control level, by a reduction in the speed of development of a conventional avoiding response in an aqueous labyrinth (58±15%), by an increase in the number of mistakes during the teaching time (175±25%), lowering of the ultimate physical endurance as determined by the swimming-with-load test (the load is equal to 10% by mass of the body (70±17%), adrenal hypertrophy (146±16%), thymus atrophy (49±9%) and formation of ulcers on the stomach mucous membrane (5.25±1.0%).

[2] = test system: Glucose-6-phosphatedehydrogenase; test: Activity of glucose-6-phosphatedehydrogenase in myocardium upon low-temperature treatment; format: in vivo, mice; details: 2.5 hours at -14° C.; 80 mg/kg (invention) or 64 mg/kg (ester); control 57.3 ± 1.3
Protocol: as §2

Isocitratedehydrogenase = test: Activity of isocitratedehydrogenase in myocardium upon low-temperature treatment; format: in vivo, mice; details: 2.5 hours at -14° C.; 80 mg/kg (invention) or 64 mg/kg (ester); control 49.5 ± 1.2
Protocol: as §2

[3] = test system: NAD-Ph--H2 --dehydrogenase; test: Activity of NAD-Ph-H2-dehydrogenase in myocardium upon low-temperature treatment; format: in vivo, mice; details: 2.5 hours at -14° C.; 80 mg/kg (invention) or 64 mg/kg (ester); control 72.1 ± 1.4
Protocol: as §2

Glutamatedehydrogenase = test: Activity of glutamatedehydrogenase in myocardium upon low-temperature treatment; format: in vivo, mice; details: 2.5 hours at -14° C.; 80 mg/kg (invention) or 64 mg/kg (ester); control 68.8 ± 1.5
Protocol: as §2

[4] = Biochemical substrates in mice upon preset (2.5 hours) low-temperature treatment; details: 2.5 hours at -14° C.
Protocol: as §2

NADH2 --dehydrogenase = test: Activity of NADH2-dehydrogenase in myocardium upon low-temperature treatment; format: in vivo, mice; details: 2.5 hours at -14° C.; 80 mg/kg (invention) or 64 mg/kg (ester); control 69.8 ± 1.5
Protocol: as §2

[5] = Blood glucose and organ glycogen upon predetermined (2.5 h) cold treatment (adaptation experiment); format: in vivo, mice; details: 2.5 h at -14° C.; for Glycogen, heart: control 1.7 ± 0.2; for Glycogen, liver: control 6.7 ± 0.4; for Blood glucose: control 37 ± 6
Protocol: (§1) To elucidate the effect of the compound according to the present invention on the adaptation phenomenon, experiments on male mice with a body mass of 18-20 g were carried out in conformity with the Le Blanc procedure according to which the mice were placed into a cold chamber (at -17° C.) for 10 minutes ever hour over the period of 9-10 hours. After one day the maximum lifespan of the mice at -17° C. was assessed along with the content of glucose in blood and of glycogen in organs upon a predetermined cold treatment (2.5 hours a -14° C.). The compound according to the present invention and butanedioic acid mono[(2-dimethylamino)-ethyl ester] (in doses of 80 and 64 mg/kg respectively) were introduced immediately after a series of short-time cold effects. In a number of experiments the compound according to the present invention was administered 1 hour prior to the testing (2.5 h) cold effect.

Succinatedehydrogenase = test: Activity of succinatedehydrogenase in myocardium upon low-temperature treatment; format: in vivo, mice; details: 2.5 hours at -14° C.; 80 mg/kg (invention) or 64 mg/kg (ester); control 72.3 ± 1.6
Protocol: as §2

[6] = Maximum duration of mice lifespan upon testing cold treatment (Le Blanc adaptation procedure); format: in vivo
Protocol: as §1

[7] = Survival of mice on acute cooling; format: in vivo
Protocol: The activity of the compound according to the present invention was studied in experiments on animals. The effectivemess of the compound according to the present invention was studied for resistance against an acute cold effect in comparison with conventional preparations such as butanedioic acid mono[(2-dimethylamino)ethyl ester] and sodium succinate.
The experiments were carried out on male mice (tetrahybdrids) with a body mass of 18-20 g which were placed into a cold chamber at a temperature of -15t to -17° C. in separate plastic cages slightly limiting their activity. […] The preparations were administered intraperiotoneally 1 hour before the cold effect the control animals were administered with a physiological solution.

[8] = adaptation + preparation 1 hour before the testing effect
[9] = adaptation + preparation immediately after adaptation, 80 mg/kg (invention) or 64 mg/kg (ester)

SMILES: CN(C)CCOC(=O)CCC(=O)O [Compound of this invention, butanedioic acid mono[(2-dimethylamino)ethyl ester]succinate]
- Activity of pyruvatedehydrogenase in myocardium (Pyruvatedehydrogenase): 68.9 ± 1.3 relative units
- formation of ulcers on the stomach mucous membrane [1]: 4.8±1.5%
- general behavioural activity compared with diazepam ([1]; in words): substantially higher general behavioural activity
- Weight coefficient of thymus ([1]; 10 mg/kg i.p. four times (invention, ester), control 0.95 ± 0.18, listed as compound of the present invention, 10 mg/kg): 1.25 g/kg of the initial body mass
- Weight coefficient of adrenal glands ([1]; 10 mg/kg i.p. four times (invention, ester), control 1.246 ± 0.028, listed as compound of the present invention, 10 mg/kg): 1.83 g/kg of the initial body mass
- Number of attempts till reaching the learning criterion (water labyrinth) ([1]; 10 mg/kg i.p. four times (invention, ester), control 4.75 ± 0.5, listed as compound of the present invention, 10 mg/kg): 2.75
- Number of ulcers on the stomach mucous membrane ([1]; 10 mg/kg i.p. four times (invention, ester), control 5.25 ± 1.0, listed as compound of the present invention, 10 mg/kg): 2.5
- Duration of swimming ([1]; 10 mg/kg i.p. four times (invention, ester), control 244 ± 26, listed as compound of the present invention, 10 mg/kg): 499 s
- total behavioural activity ([1]; open-field test, stressed control 37±15% of passive control): 85±10%
- higher nervous activity (protection) ([1]; stressed control 58±15% (avoiding response, aqueous labyrinth)): 100±9%
- physical endurance ([1]; swimming-with-load test, stressed control 70±17%): 143±28%
- Activity of glucose-6-phosphatedehydrogenase in myocardium [2]: 67.4 ± 1.5 relative units
- Activity of isocitratedehydrogenase in myocardium (Isocitratedehydrogenase): 60.4 ± 1.6 relative units
- Activity of NAD-Ph-H2-dehydrogenase in myocardium [3]: 85.9 ± 1.7 relative units
- Activity of glutamatedehydrogenase in myocardium (Glutamatedehydrogenase): 78.3 ± 1.7 relative units
- Liver glycogen ([4]; 1 hour after 80 mg/kg (invention) or 64 mg/kg (ester), control 8.1 ± 0.6, intact 35.2 ± 4.5): 9.8 ± 1.2 mg/kg
- Blood glucose ([4]; 1 hour after 80 mg/kg (invention) or 64 mg/kg (ester), control 42 ± 4, intact 79 ± 3): 80 ± 4 mg. %
- Creatine phosphate ([4]; myocardium, 1 hour after 80 mg/kg (invention) or 64 mg/kg (ester), control 1.2 ± 0.08, intact 3.7 ± 0.3): 2.3 ± 0.1 μm/g
- Adenosine monophosphate ([4]; myocardium, 1 hour after 80 mg/kg, control 0.45 ± 0.01, intact 0.51 ± 0.03): 0.32 ± 0.02 μm/g
- Adenosine diphosphate ([4]; myocardium, 1 hour after 80 mg/kg, control 0.49 ± 0.02, intact 0.78 ± 0.03): 0.86 ± 0.04 μm/g
- Adenosine triphosphoric acid ([4]; myocardium, 1 hour after 80 mg/kg, control 1.5 ± 0.1, intact 2.2 ± 0.3): 1.9 ± 0.2 μm/g
- Activity of NADH2-dehydrogenase in myocardium (NADH2 --dehydrogenase): 73.4 ± 2.0 relative units
- Glycogen, heart [5, 8]: 2.6 ± 0.4 mg/g
- Glycogen, liver [5, 8]: 11.7 ± 2.4 mg/g
- Blood glucose [5, 8]: 78 ± 6 mg. %
- Glycogen, heart [5, 9]: 2.9 ± 0.2 mg/g
- Glycogen, liver [5, 9]: 18.2 ± 2.1 mg/g
- Blood glucose [5, 9]: 88 ± 2 mg. %
- Activity of succinatedehydrogenase in myocardium (Succinatedehydrogenase): 90.2 ± 1.8 relative units
- Lifespan in hours (at -17° C.), preparation without adaptation ([6]; no adaptation, intact animals 3.4 ± 0.4): 7.8 ± 0.3 h
- Lifespan in hours (at -17° C.), preliminary adaptation + preparation ([6]; with preliminary adaptation, 80 mg/kg (invention) or 64 mg/kg (ester), adaptation alone 6.0 ± 0.3, listed as compound of the present invention): 10.3 ± 0.6 h
- Survival, %, 1 hour ([7]; 1 hour of cold at -15 to -17° C., i.p. 1 hour before, 80 mg/kg (invention), 64 mg/kg (ester), 17 mg/kg (sodium succinate)): 100%
- Survival, %, 2 hours ([7]; 2 hours of cold at -15 to -17° C., i.p. 1 hour before, 80 mg/kg (invention), 64 mg/kg (ester), 17 mg/kg (sodium succinate)): 100%
- Survival, %, 3 hours ([7]; 3 hours of cold at -15 to -17° C., i.p. 1 hour before, 80 mg/kg (invention), 64 mg/kg (ester), 17 mg/kg (sodium succinate)): 100%
- Survival, %, 4 hours ([7]; 4 hours of cold at -15 to -17° C., i.p. 1 hour before, 80 mg/kg (invention), 64 mg/kg (ester), 17 mg/kg (sodium succinate)): 90%
- Survival, %, 5 hours ([7]; 5 hours of cold at -15 to -17° C., i.p. 1 hour before, 80 mg/kg (invention), 64 mg/kg (ester), 17 mg/kg (sodium succinate)): 70%
- Survival, %, 6 hours ([7]; 6 hours of cold at -15 to -17° C., i.p. 1 hour before, 80 mg/kg (invention), 64 mg/kg (ester), 17 mg/kg (sodium succinate)): 70%
- protective effect on survival at high dose ([7]; doses above 300 mg/kg): less pronounced
